Columns and labels:
thrombin generation = test: Thrombin generation in platelet poor plasma (Thrombinoscope, Innovin or Actin trigger); assay type: biochemical, human; conditions: COL-3 final concentration 10.72, 21.44 and 536 μl, Innovin 5 pM or Actin 1:20 trigger, FIGS. 1A and 1B
Procedure: (§1) COL-3 was dissolved in DMSO (dimethyl sulfoxide, Sigma, St. Louis, Mo.). Blood was drawn from 5 consented healthy volunteers into 3.2% citrate tubes.
For thrombin generation experiments 80 μl of platelet poor plasma containing either saline, DMSO or COL-3 at final concentration of […] and thrombin generation trigger (Innovin 5 pM, or Actin 1:20 dilution, Dade Behring, Marburg, Germany) were added to 96 well microtiter plate (Microfluor-2, Thermolabsystems, Franklin Mass.) followed by 20 μl of calcium-substrate (Z-GGR-AMC, Bachem, Switzerland) buffer. The reaction was monitored by measuring increase in fluorescence at 390 nm excitation and 460 nm emission wavelengths and the acquired data was processed for lag time and peak thrombin generation parameters using Thrombinoscope software (Thrombinoscope BV, Maastricht, the Netherlands). The data were imported into excel file and the % decrease in thrombin generation due to COL-3 was calculated. Data were analyzed using repeated ANOVA p<0.05 was considered significant.

plasma PT = test: Prothrombin time (PT) in plasma; assay type: biochemical, human; conditions: COL-3 10.72, 21.44 and 536 μM, FIG. 2
Procedure: as §1
(§2) Maximum amplitude (MA), angle, and R-value were recorded. For prothrombin time (PT) and activated partial thromboplastin time (aPTT) blood samples were centrifuged for 15 min at 3000× g to obtain plasma and COL-3 was added to a final concentration of 10.72, 21.44 and 536 μM. Testing was done using Start 4instrument (Diagnostic Stago, Parsippainy, N.J.) along with appropriate standards and controls.

plasma aPTT = test: Activated partial thromboplastin time (aPTT) in plasma; assay type: biochemical, human; conditions: COL-3 10.72, 21.44 and 536 μM, FIG. 2
Procedure: as §1, §2

platelets = test: Platelet aggregation (light transmittance aggregometer, ADP and collagen activators); assay type: cell-based, human; conditions: 200,000 platelets/μl; ADP and collagen (20 μM) as activators
Procedure: as §1
For platelet aggregation studies platelet rich and platelet poor plasma was separated by centrifugation. All platelet studies were performed in a total volume of 500 μl with 200,000 platelets/μl. Platelet aggregation was quantitated by measuring changes in light transmittance in dual channel aggregometer (Chronolog Corp. Havertown, Pa.) using ADP (adenosine di-phosphate) and collagen (final concentration 20 μM) as activators.

whole blood = test: TEG (Thromboelastograph) of whole blood activated with tissue factor; assay type: cell-based, human; conditions: COL-3 10.72 or 21.44 μM, TF 4 pM
Procedure: as §1
For TEG (Thromboelastograph, Haemoscope Corp, Skokie Ill.) whole blood samples (0.34 ml) were added to cups along with 10 μl of saline (control), DMSO, or COL-3 (final concentration of 10.72 or 21.44 μM). After addition of calcium chloride (20 μl of 0.2 M), samples were activated with TF (tissue factor) (4 pM) and TEGs (thrombelastogram) were run according to manufacturers directions.
as §2

[1] = Plasma concentration in humans after daily dose; assay type: in vivo; conditions: dose of about 10 to about 20 mg/day

NC(=O)C1=C(O)C[C@@H]2C[C@@H]3Cc4cccc(O)c4C(=O)C3=C(O)[C@]2(O)C1=O [COL-3, 6-demethyl-6-deoxy-4-de(dimethylamino)tetracycline]
thrombin generation (thrombin generation): dose dependent reduction | PT values (plasma PT): increased only at the highest concentration | aPTT values (plasma aPTT): increased only at the highest concentration | platelet aggregation (platelets): no effect | TEG parameters (maximum amplitude (MA), angle, R-value) (whole blood): no effect | plasma concentrations in humans [1]: about 1.0 μg/ml

Reference: patent US8211874B2, “Inhibition of thrombin generation” (Galderma Laboratories Inc., priority 2005, dated 2012)
